In patent US6358883B1, “Pesticidal and parasiticidal use of 1-aryl-1-(substituted thio, sulfinyl and sulfonyl)-2-nitroethane compounds” (American Cyanamid Company, priority 1998, dated 2002):

Key:
Format in all cases: in vivo
[1] = system: C. elegans (Bristol strain); assay: Evaluation of test compounds against C. elegans (motility, 96-well plate); design: key: 9=complete kill in 4 hours; 8=complete kill in 24 hours; 7=markedly reduced motility in approximately 95% of worms in 24 hours; 0=normal motility, same as controls; settings: motility at 4 and 24 hours
Outline: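 Activity is a semi-quantitative visual score of adult and larval movement, read at 4 h and 24 h post-immersion at 20 °C after gentle tapping. Worms were suspended in Na buffer in wells where compound, dissolved in 80% acetone, had been evaporated.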

[2] = system: Diabrotica undecimpunctata howardi, eggs-southern corn rootworm (SCR-Eggs); assay: Southern corn rootworm eggs (SCR-Eggs) treated diet test; design: key: 0 = no effect; 1 = 10-25% kill; 2 = 26-35% kill; 3 = 36-45% kill; 4 = 46-55% kill; 5 = 56-65% kill; 6 = 66-75% kill; 7 = 76-85% kill; 8 = 86-99% kill; 9 = 100% kill; settings: mortality after 7 days
Outline: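 Eggs of S. eridania or D. undecimpunctata howardi were set on artificial diet pretreated with test solution (10,000 ppm stock in 35% aqueous acetone, water dilutions) and dried. Wells were sealed with vented clear covers, and mortality was scored at day 7.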

[3] = system: Spodoptera eridania, eggs-southern armyworm (SAW-Eggs); assay: Southern armyworm eggs (SAW-Eggs) treated diet test; design: key: 0 = no effect; 1 = 10-25% kill; 2 = 26-35% kill; 3 = 36-45% kill; 4 = 46-55% kill; 5 = 56-65% kill; 6 = 66-75% kill; 7 = 76-85% kill; 8 = 86-99% kill; 9 = 100% kill; settings: mortality after 7 days
Description: Test solutions are prepared by dissolving the test compound in a 35% acetone in water mixture to give a concentration of 10,000 ppm. Subsequent dilutions are made with water as needed. Spodoptera eridania, Eggs-southern Armyworm and Diabrotica undecimpunctata howardi, Eggs-southern Corn Rootworm (SAW-Eggs) and (SCR-Eggs) Wells containing artificial diet are treated with the test solutions and dried. The appropriate insect eggs are then placed in the wells. The wells are covered with vented, adhesive, clear plastic covers. After 7 days, mortality counts are made. [table]

[4] = system: Aphis gossypii, cotton aphid (CA); assay: Cotton aphid (CA) cotyledon dip test; design: key: 0 = no effect; 1 = 10-25% kill; 2 = 26-35% kill; 3 = 36-45% kill; 4 = 46-55% kill; 5 = 56-65% kill; 6 = 66-75% kill; 7 = 76-85% kill; 8 = 86-99% kill; 9 = 100% kill; settings: mortality after 5 days
Outline: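 Mortality was scored 5 days after dipping aphid-infested cotyledons, colonised overnight from a transfer leaf, into water dilutions of a 35% acetone/water compound solution.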

[5] = system: Spodoptera eridania, 2nd instar larvae, southern armyworm (SAW); assay: Southern armyworm (SAW) leaf dip test; design: key: 0 = no effect; 1 = 10-25% kill; 2 = 26-35% kill; 3 = 36-45% kill; 4 = 46-55% kill; 5 = 56-65% kill; 6 = 66-75% kill; 7 = 76-85% kill; 8 = 86-99% kill; 9 = 100% kill
Outline: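 Ten 2nd instar caterpillars feed on a Sieva lima bean leaf that was dipped 3 seconds in test solution (stock 10,000 ppm in 35% acetone/water, water-diluted). Five days later, larvae are assessed for death, feeding reduction or abnormal molting.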

[6] = system: Diabrotica virgifera virgifera Leconte, 2nd instar western corn rootworm (WCR); assay: Western corn rootworm (WCR) soil test; design: key: 0 = no effect; 1 = 10-25% kill; 2 = 26-35% kill; 3 = 36-45% kill; 4 = 46-55% kill; 5 = 56-65% kill; 6 = 66-75% kill; 7 = 76-85% kill; 8 = 86-99% kill; 9 = 100% kill
Outline: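 Ten 2nd-instar rootworm larvae are placed in jars of moist soil with millet seed and talc treated with 1.25 mg active ingredient (roughly 50 kg/ha) from a 35% acetone-in-water solution. After 5 days mortality is scored, counting missing larvae as dead.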

[7] = system: Tetranychus urticae (OP-resistant strain), 2-spotted spider mite (TSM); assay: 2-spotted spider mite (TSM) plant dip test; design: key: 0 = no effect; 1 = 10-25% kill; 2 = 26-35% kill; 3 = 36-45% kill; 4 = 46-55% kill; 5 = 56-65% kill; 6 = 66-75% kill; 7 = 76-85% kill; 8 = 86-99% kill; 9 = 100% kill; settings: mortality after 2 days
Outline: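 Mortality counted 2 days after a 3 s agitated dip of infested Sieva lima bean plants. Compound came from a 10,000 ppm stock in 35% aqueous acetone, with further dilution in water. Each primary leaf carried about 100 OP-resistant mites, allowed to settle ~2 h before dipping.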

[8] = system: M. incognita (Root Knot Nematode) larvae; assay: Evaluation of test compounds against M. incognita larvae in microtiter plate wells (movement score); settings: larvae scored for movement after 20-24 hours; note: key: A score of '9' indicates inactive worms with a straight, sticklike morphology; A score of '8' indicates inactive worms with a limp, curled or curved morphology; A score of '7' indicates dead/paralyzed worms after 72 hours
Outline: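 Scoring is by larval movement: dead or paralyzed worms count as positive, and a "7" means dead/paralyzed at 72 hours. Freshly hatched root-knot larvae (50-65 per well) in buffered S Medium were incubated with compounds under plate sealers for 20-24 h before the first read.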

SMILES	Rating Against C. elegans (150 ppm) [1]	SCR Eggs (1000 ppm) rating [2]	SAW Eggs (300 ppm) rating [3]	CA (300 ppm) rating [4]	SAW (300 ppm) rating [5]	WCR (50 ppm) rating [6]	TSM (300 ppm) rating [7]	M. incognita (150 ppm) score [8]
C=CCSC(C[N+](=O)[O-])c1cc(OC)cc(OC)c1 (centres unmarked) [Example 3]	0	0	0	–	–	–	–	–
O=C(O)CSC(C[N+](=O)[O-])c1c(F)c(F)c(F)c(F)c1F (centres unmarked) [Example 139]	9	0	0	0	0	9 (9 = 100% kill)	0	–
COC(=O)CSC(C[N+](=O)[O-])c1c(F)c(F)c(F)c(F)c1F (centres unmarked) [Example 140]	8	0	0	0	6 (6 = 66-75% kill)	9 (9 = 100% kill)	0	–
COC(=O)CSc1c(F)c(F)c(C(C[N+](=O)[O-])SCC(=O)OC)c(F)c1F (centres unmarked) [Example 141]	8	0	0	0	0	0	0	–
CCOC(=O)CSC(C[N+](=O)[O-])c1c(F)c(F)c(F)c(F)c1F (centres unmarked) [Example 142]	8	0	0	4 (4 = 46-55% kill)	0	9 (9 = 100% kill)	0	–
CCOC(=O)CSc1c(F)c(F)c(C(C[N+](=O)[O-])SCC(=O)OCC)c(F)c1F (centres unmarked) [Example 143]	0	0	0	0	0	0	0	–
CCCOC(=O)CSC(C[N+](=O)[O-])c1c(F)c(F)c(F)c(F)c1F (centres unmarked) [Example 144]	7	0	0	0	0	9 (9 = 100% kill)	0	–
CCCOC(=O)CSc1c(F)c(F)c(C(C[N+](=O)[O-])SCC(=O)OCCC)c(F)c1F (centres unmarked) [Example 145]	0	0	0	0	0	0	0	–
CCCCOC(=O)CSC(C[N+](=O)[O-])c1c(F)c(F)c(F)c(F)c1F (centres unmarked) [Example 146]	7	0	0	0	0	8 (8 = 86-99% kill)	0	–
CCCCOC(=O)CSc1c(F)c(F)c(C(C[N+](=O)[O-])SCC(=O)OCCCC)c(F)c1F (centres unmarked) [Example 147]	0	0	0	0	0	0	0	–
O=[N+]([O-])CC(SCc1ccccc1)c1c(F)c(F)c(F)c(F)c1F (centres unmarked) [Example 148]	0	0	0	0	0	0	0	–
O=[N+]([O-])CC(SCc1ccccc1)c1c(F)c(F)c(SCc2ccccc2)c(F)c1F (centres unmarked) [Example 149]	0	0	0	0	0	0	0	–
COc1cccc(C(C[N+](=O)[O-])SCc2ccco2)c1 (centres unmarked) [Example 158]	9	0	0	0	0	0	0	–
CCCOC(=O)CSC(C[N+](=O)[O-])c1cccs1 (centres unmarked) [Example 189]	–	0	0	0	0	0	0	9
O=C(O)CSC(C[N+](=O)[O-])c1ccco1 (centres unmarked) [Example 196]	–	0	0	0	0	9 (9 = 100% kill)	0	9
COC(=O)CSC(C[N+](=O)[O-])c1ccco1 (centres unmarked) [Example 197]	–	0	9 (9 = 100% kill)	5 (5 = 56-65% kill)	0	0	0	9
CCOC(=O)CSC(C[N+](=O)[O-])c1ccco1 (centres unmarked) [Example 198]	–	0	9 (9 = 100% kill)	0	0	7 (7 = 76-85% kill)	0	9
CCCOC(=O)CSC(C[N+](=O)[O-])c1ccco1 (centres unmarked) [Example 199]	–	0	9 (9 = 100% kill)	0	0	8 (8 = 86-99% kill)	0	9
CCCCOC(=O)CSC(C[N+](=O)[O-])c1ccco1 (centres unmarked) [Example 200]	–	0	9 (9 = 100% kill)	0	0	4 (4 = 46-55% kill)	0	9
CCCSC(C[N+](=O)[O-])c1ccco1 (centres unmarked) [Example 201]	–	0	0	0	0	7 (7 = 76-85% kill)	0	0
C=CCSC(C[N+](=O)[O-])c1ccco1 (centres unmarked) [Example 202]	–	0	9 (9 = 100% kill)	0	0	9 (9 = 100% kill)	0	0
